The results in this text go back to ChEMBL document CHEMBL1128085, “Asymmetric synthesis of FR165914: A novel 3-adrenergic agonist with a benzocycloheptene structure” (Bioorg Med Chem Lett, 1995).

Each structure is given as a SMILES string. A value given as a limit tells only on which side of the number the result lay.

As a reminder, the EC50 is the concentration that produces a half-maximal response. Lower therefore signals a more potent agent. One may read the IC50 as the concentration needed to halve the response being measured. Lower therefore signals inhibition by little substance.

Test [1] deals with Beta-1 adrenergic receptor (Cavia porcellus, UniProt B0FL73). Nature of the test: Agonistic activity against Beta-1 adrenergic receptor in guinea pig atrium. Format: functional, tissue-based, Cardiac atrium.
Beta-1 adrenergic receptor, sequence (B0FL73 whole entry): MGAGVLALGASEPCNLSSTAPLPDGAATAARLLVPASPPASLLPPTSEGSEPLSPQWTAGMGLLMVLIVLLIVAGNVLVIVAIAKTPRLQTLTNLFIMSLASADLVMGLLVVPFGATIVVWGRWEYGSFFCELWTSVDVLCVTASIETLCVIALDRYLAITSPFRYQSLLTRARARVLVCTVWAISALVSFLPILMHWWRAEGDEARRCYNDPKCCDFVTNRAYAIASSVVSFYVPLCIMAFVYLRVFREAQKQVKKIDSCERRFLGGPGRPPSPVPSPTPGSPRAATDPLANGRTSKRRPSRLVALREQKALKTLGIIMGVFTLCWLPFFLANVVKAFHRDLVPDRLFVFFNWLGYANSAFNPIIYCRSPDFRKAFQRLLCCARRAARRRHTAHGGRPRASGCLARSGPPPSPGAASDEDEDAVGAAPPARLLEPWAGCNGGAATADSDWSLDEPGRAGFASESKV
The target of test [2] is Beta-3 adrenergic receptor (Rattus norvegicus, UniProt P26255). Nature of the test: Agonistic activity against Beta-3 adrenergic receptor in rat colon. Format: functional.
Beta-3 adrenergic receptor, sequence (P26255 whole entry): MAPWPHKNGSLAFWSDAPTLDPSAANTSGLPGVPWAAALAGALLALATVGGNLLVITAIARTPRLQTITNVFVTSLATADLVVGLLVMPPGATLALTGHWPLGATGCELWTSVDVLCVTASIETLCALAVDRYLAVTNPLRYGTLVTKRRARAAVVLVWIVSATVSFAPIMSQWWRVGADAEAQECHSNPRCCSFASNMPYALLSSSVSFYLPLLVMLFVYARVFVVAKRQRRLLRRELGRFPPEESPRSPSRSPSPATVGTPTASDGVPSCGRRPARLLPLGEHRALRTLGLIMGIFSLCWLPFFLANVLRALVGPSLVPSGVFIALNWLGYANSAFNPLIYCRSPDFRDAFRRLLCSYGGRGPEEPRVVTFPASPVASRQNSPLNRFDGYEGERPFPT

Turning to `O=C(O)C1(C(=O)O)Oc2cc3c(cc2O1)C[C@@H](NC[C@H](O)c1cccc(Cl)c1)CCC3`, the EC50 in test [1] was over 10000 nM. The compound also registered a concentration for half-maximal inhibition (IC50) in test [2] of 6 nM.
